Measured values reported in patent publication US12616740B2, “Methods of using a GIP/GLP1 co-agonist for therapy” (ELI LILLY AND COMPANY, priority 2018, dated 2026).

Experiments:
[1] = tested on: patients with T2DM who have inadequate glycemic control; assay: Phase 2 clinical study NCT03131687 (26 weeks): patients reaching HbA1c target; assay type: in vivo, human
Procedure: Clinical Study (NCT03131687) Supporting Maintenance Dose Embodiments A 6-month (26-week) Phase 2 double-blind clinical study is designed to evaluate the safety, efficacy, and PK/PD of 4 dose levels (1 mg, 5 mg, 10 mg and 15 mg respectively) of tirzepatide once weekly by subcutaneous injection compared with dulaglutide 1.5 mg. once weekly (QW) and placebo QW in patients with T2DM who have inadequate glycemic control with diet and exercise with or without a stable dose of metformin. Tirzepatide dose is up-titrated to the maintenance dose using the following weekly dose increments:
The study also has a 4-week follow up period. In addition to safety and efficacy for treating T2DM, efficacy endpoints include the effect of tirzepatide on HbA1c, FBG, body weight, lipids, and waist circumference compared with placebo and with dulaglutide 1.5 mg. The study also evaluates the effect of tirzepatide on GI tolerability, hypoglycemia, hypersensitivity reactions, and pancreatic safety, as well as the development of treatment-emergent anti-drug antibodies. Model-based dose response analyses are performed to predict potential for significant HbA1c lowering and weight loss in longer studies. Statistical Analyses: Efficacy: The primary efficacy outcome of HbA1c change from baseline to the 26-week endpoint is analyzed using a Bayesian dose-response model. Analyses are performed on the intention to treat population (mITT) analysis set. Supportive analysis of the primary efficacy outcome for the mITT dataset are the model for post-baseline measures (MMRM) with body mass index (BMI) (<30 kg/m^2, ≥30 kg/m^2), metformin use, treatment, visit, and treatment-by-visit interaction as fixed effects, baseline HbA1c as a covariate, and patient as a random effect. The mean weight change from baseline at 12 and 26 weeks, along with the mean change from baseline of HbA1c at 12 weeks, is analyzed using similar dose-response models as the primary analyses. The percentages of patients with ≥5% or ≥10% body weight loss, reaching the HbA1c target of ≤6.5% or ≤7.0% at 26 weeks, or requiring rescue therapy are analyzed using logistic regression with fixed effects of treatment and strata, and baseline as a covariate. The changes from baseline in FBG (fasting blood glucose), SMBG (self-monitored blood glucose) levels, waist circumference, and mean percentage change in lipids from baseline to 12 and 26 weeks are analyzed using a similar MMRM to the one used for the primary analyses. Table Abbreviations: Dula 1.5 mg=dulaglutide 1.5 mg once weekly; LY means tirzepatide, and LY 1 mg=tirzepatide 1 mg once weekly; LY 5 mg=5 mg once weekly; LY 10 mg=escalation dose group tirzepatide once weekly with highest dose of 10 mg; LY 15 mg=escalation dose group of tirzepatide once weekly with highest dose 15 mg; LOCF=last observation-carried-forward; N=number of patients; pbo=placebo; Week 26=mITT on-treatment data at Week 26 excluding data after study drug discontinuation or rescue drug initiation; mITT=modified intent-to-treat; SD=standard deviation. For Table 4, n=number of patients in the population with baseline and post-baseline value at the specified time point. For Table 6, LY10 mg=escalation dose group tirzepatide, once weekly with highest dose of 10 mg; escalation dose: (5 mg weeks 0 and 1), LY15 mg=escalation dose group tirzepatide, once weekly with highest dose of 15 mg; escalation dose: (5 mg weeks 0 and 1; 10 mg weeks 2 to 5); N=number of patients in specified group, m=number of patients who experienced new event during interval, FolUp=follow up, T/Wk=Time range, (week) and %=means percent patients spending at least some time in treatment group who experienced new event during interval. For Table 7, n is the number of patients with events meeting the criteria; N is number of patients in the population; % is percent of patients in treatment group experiencing the event.

[2] = NCT03311724: nausea, vomiting and diarrhea, new events per interval; assay type: in vivo, human; details: LY12 mg Group 3 (tirzepatide 4 mg × 4, 8 mg × 4, 12 mg × 4 once weekly), N = 29
Description: This is a 12-week treatment with a 1 week screening (Visit 1) followed by a 1 week lead-in (Visit 2), then 12 weeks of treatment (Visits 3-10, including telephone visits), then followed by 4-week safety follow-up. It is a Phase 2 study designed to examine the efficacy and tolerability of subcutaneously once-weekly tirzepatide compared with placebo in patients with type 2 diabetes who have inadequate glycemic control with diet and exercise alone or with a stable dose of metformin. The study was designed per below and conducted to refine the escalation scheme.

[3] = LY 5 mg = tirzepatide 5 mg once weekly, LOCF Week 26 (N = 55)
[4] = LY 5 mg = tirzepatide 5 mg once weekly, mITT Week 26 (N = 48)
[5] = LY 10 mg = tirzepatide once weekly, escalation to highest dose 10 mg, LOCF Week 26 (N = 51)
[6] = LY 10 mg = tirzepatide once weekly, escalation to highest dose 10 mg, mITT Week 26 (N = 44)
[7] = LY 15 mg = tirzepatide once weekly, escalation to highest dose 15 mg, LOCF Week 26 (N = 53)
[8] = LY 15 mg = tirzepatide once weekly, escalation to highest dose 15 mg, mITT Week 26 (N = 35)

Substance: tirzepatide [LY]
- HbA1c change from baseline (in words) ([1]; 5 mg, 10 mg, and 15 mg doses of tirzepatide, significantly different from placebo and from dulaglutide 1.5 mg): significantly decrease HbA1c from baseline
- % of Patients Reaching HbA1c Target <5.7% [1, 3]: 3.6%
- % of Patients Reaching HbA1c Target <6% [1, 3]: 25.5%
- odds ratio vs. placebo, Patients Reaching HbA1c Target <5.7% [1, 3]: 1.6
- odds ratio vs. placebo, Patients Reaching HbA1c Target <6% [1, 3]: 11.8
- % of Patients Reaching HbA1c Target <5.7% [1, 4]: 4.3%
- % of Patients Reaching HbA1c Target <6% [1, 4]: 23.4%
- odds ratio vs. placebo, Patients Reaching HbA1c Target <5.7% [1, 4]: 1.7
- odds ratio vs. placebo, Patients Reaching HbA1c Target <6% [1, 4]: 10.5
- % of Patients Reaching HbA1c Target <5.7% [1, 5]: 18.0%
- % of Patients Reaching HbA1c Target <6% [1, 5]: 46.0%
- odds ratio vs. placebo, Patients Reaching HbA1c Target <5.7% [1, 5]: 7.8
- odds ratio vs. placebo, Patients Reaching HbA1c Target <6% [1, 5]: 28.7
- % of Patients Reaching HbA1c Target <5.7% [1, 6]: 20.9%
- % of Patients Reaching HbA1c Target <6% [1, 6]: 51.2%
- odds ratio vs. placebo, Patients Reaching HbA1c Target <5.7% [1, 6]: 7.9
- odds ratio vs. placebo, Patients Reaching HbA1c Target <6% [1, 6]: 34.5
- % of Patients Reaching HbA1c Target <5.7% [1, 7]: 30.2%
- % of Patients Reaching HbA1c Target <6% [1, 7]: 37.7%
- odds ratio vs. placebo, Patients Reaching HbA1c Target <5.7% [1, 7]: 14.4
- odds ratio vs. placebo, Patients Reaching HbA1c Target <6% [1, 7]: 22.0
- % of Patients Reaching HbA1c Target <5.7% [1, 8]: 42.9%
- % of Patients Reaching HbA1c Target <6% [1, 8]: 54.3%
- odds ratio vs. placebo, Patients Reaching HbA1c Target <5.7% [1, 8]: 26.6
- odds ratio vs. placebo, Patients Reaching HbA1c Target <6% [1, 8]: 48.7
- Nausea Vomiting and Diarrhea: m, number of patients who experienced new event during interval ([2]; Follow-up): m = 1;
- Nausea Vomiting and Diarrhea: m, number of patients who experienced new event during interval ([2]; Overall): m = 14;
- Nausea Vomiting and Diarrhea: m, number of patients who experienced new event during interval ([2]; T/Wk 0): m = 9;
- Nausea Vomiting and Diarrhea: m, number of patients who experienced new event during interval ([2]; T/Wk 1): m = 5;
- Nausea Vomiting and Diarrhea: m, number of patients who experienced new event during interval ([2]; T/Wk 2): m = 1;
- Nausea Vomiting and Diarrhea: m, number of patients who experienced new event during interval ([2]; T/Wk 3): m = 3;
- Nausea Vomiting and Diarrhea: m, number of patients who experienced new event during interval ([2]; T/Wk 4): m = 3;
- Nausea Vomiting and Diarrhea: m, number of patients who experienced new event during interval ([2]; T/Wk 5): m = 0;
- Nausea Vomiting and Diarrhea: m, number of patients who experienced new event during interval ([2]; T/Wk 6): m = 2;
- Nausea Vomiting and Diarrhea: m, number of patients who experienced new event during interval ([2]; T/Wk 7): m = 1;
